Where “and” joins values, the source holds several entries; their conditions need not be identical. Equal values may be shown once.
Test system: human C3A liver cells
Assay: Microarray differential gene expression in human C3A liver cell cultures treated with steroids
Assay type: cell-based
Description: Incyte clones represent template sequences derived from the LWESEQ GOLD assembled human sequence database (Incyte Genomics). In cases where more than one clone was available for a particular template, the 5′-most clone in the template was used on the microarray. The HUMAN GENOME GEM series 1-4 microarrays (Incyte Genomics) contain 28,626 array elements which represent 10,068 annotated clusters and 18,558 unannotated clusters. For the UNIGEM series microarrays (Incyte Genomics), Incyte clones were mapped to non-redundant Unigene clusters (Unigene database (build 46), NCBI; Shuler (1997) J Mol Med 75:694-698), and the 5′ clone with the strongest BLAST alignment (at least 90% identity and 100 bp overlap) was chosen, verified, and used in the construction of the microarray. The UNIGEM V microarray (Incyte Genomics) contains 7075 array elements which represent 4610 annotated genes and 2,184 unannotated clusters.
To construct microarrays, cDNAs were amplified from bacterial cells using primers complementary to vector sequences flanking the cDNA insert. […] Amplified cDNAs were then purified using […]-400 columns (APB). Purified cDNAs were immobilized on polymer-coated glass slides. Glass microscope slides (Corning, Corning N.Y.) were cleaned by ultrasound in 0.1% SDS and acetone, with extensive distilled water washes between and after treatments. Glass slides were etched in 4% hydrofluoric acid (VWR Scientific Products, West Chester Pa.), washed thoroughly in distilled water, and coated with 0.05% aminopropyl silane (Sigma Aldrich) in 95% ethanol. Coated slides were cured in a 110° C. oven. cDNAs were applied to the coated glass substrate using a procedure described in U.S. Pat. No. 5,807,522. One microliter of the cDNA at an average concentration of 100 ng/μl was loaded into the open capillary printing element by a high-speed robotic apparatus which then deposited about 5 nl of cDNA per slide.
Microarrays were UV-crosslinked using a […] UV-crosslinker (Stratagene), and then washed at room temperature once in 0.2% SDS and three times in distilled water. Non-specific binding sites were blocked by incubation of microarrays in 0.2% casein in phosphate buffered saline (Tropix, Bedford Mich.) for 30 minutes at 60° C. followed by washes in 0.2% SDS and distilled water as before.
In all cases, mRNA from untreated early confluent C3A cells were prepared in parallel as described below.
Cells were harvested and lysed in 1 ml of TRIZOL reagent (5×10^6 cells/ml; Life Technologies). Lysates were vortexed thoroughly, incubated at room temperature for 2-3 minutes, and extracted with 0.5 ml chloroform. The extract was mixed, incubated at room temperature for 5 minutes, and centrifuged at 15,000 rpm for 15 minutes at 4° C. The aqueous layer was collected, and an equal volume of isopropanol was added. Samples were mixed, incubated at room temperature for 10 minutes, and centrifuged at 15,000 rpm for 20 minutes at 4° C. The supernatant was removed, and the RNA pellet was washed with 1 ml of 70% ethanol, centrifuged at 15,000 rpm at 4° C., and resuspended in RNAse-free water. The concentration of the RNA was determined by measuring the optical density at 260 nm.
Poly(A) RNA was prepared using an OLIGOTEX mRNA kit (Qiagen) with the following modifications: OLIGOTEX beads were washed in tubes instead of on spin columns, resuspended in elution buffer, and then loaded onto spin columns to recover mRNA. To obtain maximum yield, the mRNA was eluted twice.
Each poly(A) RNA sample was reverse transcribed using MMLV reverse-transcriptase, 0.05 pg/μl oligo-d(T) primer (21mer), 1× first strand buffer, 0.03 units/ul RNAse inhibitor, 500 uM dATP, 500 uM dGTP, 500 uM dTTP, 40 uM dCTP, and 40 uM either dCTP-Cy3 or dCTP-Cy5 (APB).

SMILES: CCCC1O[C@@H]2C[C@H]3[C@@H]4CCC5=CC(=O)C=C[C@]5(C)[C@H]4[C@@H](O)C[C@]3(C)[C@]2(C(=O)CO)O1 (stereo partly drawn) [budesonide]
- Ave DE [log2] (C3A treated with steroid) (Clone ID 380006): −1.05 log2
- Ave DE [log2] (C3A treated with steroid) (Clone ID 517374): 1.04 log2
- Ave DE [log2] (C3A treated with steroid) (Clone ID 615776): 1.06 log2
- Ave DE [log2] (C3A treated with steroid) (Clone ID 622565): 1.20 log2
- Ave DE [log2] (C3A treated with steroid) (Clone ID 654246): −1.08 log2
- Ave DE [log2] (C3A treated with steroid) (Clone ID 686993): 0.51 log2
- Ave DE [log2] (C3A treated with steroid) (Clone ID 689296): 1.08 log2 and 1.05 log2
- Ave DE [log2] (C3A treated with steroid) (Clone ID 1401312): −1.09 log2
- Ave DE [log2] (C3A treated with steroid) (Clone ID 1604437): 1.18 log2
- Ave DE [log2] (C3A treated with steroid) (Clone ID 1611629): 1.19 log2
- Ave DE [log2] (C3A treated with steroid) (Clone ID 1662870): −0.93 log2
- Ave DE [log2] (C3A treated with steroid) (Clone ID 1679595): 1.10 log2
- Ave DE [log2] (C3A treated with steroid) (Clone ID 1697719): −0.81 log2
- Ave DE [log2] (C3A treated with steroid) (Clone ID 1716458): 1.24 log2
- Ave DE [log2] (C3A treated with steroid) (Clone ID 1798594): 0.69 log2
- Ave DE [log2] (C3A treated with steroid) (Clone ID 1823946): −1.10 log2
- Ave DE [log2] (C3A treated with steroid) (Clone ID 1876829): −1.13 log2
- Ave DE [log2] (C3A treated with steroid) (Clone ID 1930847): −1.09 log2
- Ave DE [log2] (C3A treated with steroid) (Clone ID 1973123): −1.23 log2
- Ave DE [log2] (C3A treated with steroid) (Clone ID 2057513): 1.13 log2
- Ave DE [log2] (C3A treated with steroid) (Clone ID 2078880): −0.80 log2
- Ave DE [log2] (C3A treated with steroid) (Clone ID 2170820): 1.17 log2
- Ave DE [log2] (C3A treated with steroid) (Clone ID 2173973): 1.08 log2
- Ave DE [log2] (C3A treated with steroid) (Clone ID 2189061): 0.15 log2
- Ave DE [log2] (C3A treated with steroid) (Clone ID 2222155): 0.58 log2
- Ave DE [log2] (C3A treated with steroid) (Clone ID 2227273): 1.05 log2
- Ave DE [log2] (C3A treated with steroid) (Clone ID 2287724): −1.06 log2
- Ave DE [log2] (C3A treated with steroid) (Clone ID 2343836): 0.93 log2
- Ave DE [log2] (C3A treated with steroid) (Clone ID 2404746): 0.42 log2
- Ave DE [log2] (C3A treated with steroid) (Clone ID 2482388): 1.19 log2
- Ave DE [log2] (C3A treated with steroid) (Clone ID 2660756): 1.13 log2
- Ave DE [log2] (C3A treated with steroid) (Clone ID 2687356): 1.26 log2
- Ave DE [log2] (C3A treated with steroid) (Clone ID 2703282): −1.01 log2
- Ave DE [log2] (C3A treated with steroid) (Clone ID 3139631): −0.97 log2
- Ave DE [log2] (C3A treated with steroid) (Clone ID 3229449): 0.39 log2
- Ave DE [log2] (C3A treated with steroid) (Clone ID 3408804): −1.24 log2
- Ave DE [log2] (C3A treated with steroid) (Clone ID 3426776): 0.61 log2
- Ave DE [log2] (C3A treated with steroid) (Clone ID 3449615): 1.05 log2
- Ave DE [log2] (C3A treated with steroid) (Clone ID 3497137): −0.94 log2
- Ave DE [log2] (C3A treated with steroid) (Clone ID 3687607): 1.17 log2
- Ave DE [log2] (C3A treated with steroid) (Clone ID 3721985): −1.10 log2
- Ave DE [log2] (C3A treated with steroid) (Clone ID 3770530): −0.98 log2
- Ave DE [log2] (C3A treated with steroid) (Clone ID 3973687): 1.31 log2
- Ave DE [log2] (C3A treated with steroid) (Clone ID 4089291): −1.00 log2
- Ave DE [log2] (C3A treated with steroid) (Clone ID 4215034): 1.20 log2
- Ave DE [log2] (C3A treated with steroid) (Clone ID 4252872): 1.24 log2
- Ave DE [log2] (C3A treated with steroid) (Clone ID 4403805): 1.12 log2
- Ave DE [log2] (C3A treated with steroid) (Clone ID 4630674): 0.97 log2
- Ave DE [log2] (C3A treated with steroid) (Clone ID 4855265): 1.14 log2
- Ave DE [log2] (C3A treated with steroid) (Clone ID 4863677): 1.11 log2
- Ave DE [log2] (C3A treated with steroid) (Clone ID 5038177): 0.57 log2
- Ave DE [log2] (C3A treated with steroid) (Clone ID 5102951): 0.84 log2
- Ave DE [log2] (C3A treated with steroid) (Clone ID 5326983): 0.94 log2

SMILES: C#C[C@]1(O)CC[C@H]2[C@@H]3CCC4=Cc5oncc5C[C@]4(C)[C@H]3CC[C@@]21C [danazol]
- Ave DE [log2] (C3A treated with steroid) (Clone ID 1500810): −0.41 log2
- Ave DE [log2] (C3A treated with steroid) (Clone ID 2607834): 0.92 log2
- Ave DE [log2] (C3A treated with steroid) (Clone ID 5038177): 0.74 log2

SMILES: C[C@@H]1C[C@H]2[C@@H]3CCC4=CC(=O)C=C[C@]4(C)[C@@]3(F)[C@@H](O)C[C@]2(C)[C@@]1(O)C(=O)CO [dexamethasane]
- Ave DE [log2] (C3A treated with steroid) (Clone ID 2253102): −1.20 log2

Reference: patent US6673549B1, “Genes expressed in C3A liver cell cultures treated with steroids” (Incyte Corporation, priority 2000, dated 2004)
